Usually TGI stands for the concentration giving total growth inhibition.

Some test systems named below: A498 renal; A549 NSCLC; ACHN renal; BT-549 breast; CAKI-1 renal; DU-145 prostate; EKVX NSCLC; HCT-15 colon; HS 578T breast; HT29 colon; MDA-MB-231 breast; NCI-H522 lung; PC-3 prostate; SF-295 CNS; SK-MEL-28 melanoma; SK-OV-3 ovarian; SR leukemia; U251 CNS; UACC-257 melanoma; OVCAR-5 ovarian.
Assay in all cases: DTP human tumour cell line panel, 48 h

Structures are written as SMILES.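 Method: 48-hour compound exposure of cells in 96-well plates, five concentrations, linear interpolation of endpoints. TGI marks complete inhibition of growth.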 Where only a bound is given, the exact number is not on record here.

`Nc1cc([N+](=O)[O-])ccc1C(=O)N1CCC[C@H]1CO`: the TGI in the assay with A498 renal, in the assay on A549 NSCLC, in the assay with ACHN renal, in the assay on BT-549 breast, in the assay on CAKI-1 renal and with DU-145 prostate was over 100 µM in each case. In addition, the TGI in the assay with EKVX NSCLC, in the assay on HCT-15 colon, in the assay on HS 578T breast, in the assay on HT29 colon, with MDA-MB-231 breast and with NCI-H522 lung was over 100 µM in each case. Moreover, the TGI in the assay with PC-3 prostate, in the assay on SF-295 CNS, with SK-MEL-28 melanoma, with SK-OV-3 ovarian, with SR leukemia and in the assay on U251 CNS was over 100 µM throughout. In the assay with UACC-257 melanoma, this compound gave a concentration for total growth inhibition (TGI) of over 100 µM.

Consider `Cc1cc(C)c2c(=O)cc(-c3cccc4ccccc34)[nH]c2n1`, for which the TGI with A498 renal is 4.72 µM; in the assay on A549 NSCLC, over 100 µM; in the assay on ACHN renal, over 100 µM; with BT-549 breast, over 100 µM; with CAKI-1 renal, over 100 µM; with DU-145 prostate, over 100 µM. The TGI in the assay with EKVX NSCLC was over 100 µM; in the assay on HCT-15 colon, 14.3 µM; with HS 578T breast it was over 100 µM; in the assay on HT29 colon it was 2.31 µM; with MDA-MB-231 breast, 18.6 µM; with OVCAR-5 ovarian, over 100 µM. Moreover, the total growth inhibition concentration (TGI) with PC-3 prostate was over 100 µM; in the assay with SF-295 CNS, over 100 µM; in the assay on SK-MEL-28 melanoma, over 100 µM; in the assay with SK-OV-3 ovarian, over 42 µM; in the assay with SR leukemia, over 100 µM; with U251 CNS, 23.8 µM.

As to `CCCCCCCC(CC(=O)NC(CO)C(=O)NC(CO)CC(C)C)OC(=O)CC(CCCCCCC)OC(=O)CC(CCCCCCC)OC1OC(C)C(O)C(OC2OC(C)C(OC(C)=O)C(O)C2O)C1O` (stereo not drawn), the TGI in the assay on A498 renal amounted to 23.5 µM; with A549 NSCLC it was 23.8 µM; with ACHN renal, 29.2 µM; with BT-549 breast it was 19.6 µM; in the assay on CAKI-1 renal, 29 µM; in the assay with DU-145 prostate, 24 µM. The total growth inhibition concentration (TGI) with EKVX NSCLC was 28.2 µM; in the assay with HS 578T breast it was 18.7 µM; in the assay with HT29 colon, 13 µM; with MDA-MB-231 breast, 20.4 µM; in the assay on NCI-H522 lung, 24.7 µM; with OVCAR-5 ovarian it was 21.7 µM. Also, the TGI stood at 16.2 µM in the assay on PC-3 prostate; 24.3 µM with SF-295 CNS; 19.4 µM in the assay on SK-MEL-28 melanoma; 29.8 µM in the assay with SK-OV-3 ovarian; 6.22 µM with SR leukemia; 14.7 µM with U251 CNS. Besides, the total growth inhibition concentration (TGI) in the assay on UACC-257 melanoma was 12 µM.

For `O=C(O)CO[C@@]12C#C/C=C\C#C[C@@H]3N(C(=O)Oc4ccccc4)c4ccccc4[C@]14O[C@@]34CCC2`, the concentration for total growth inhibition (TGI) was over 100 µM in the assay on A498 renal; over 100 µM with A549 NSCLC; over 100 µM in the assay with ACHN renal; 69.9 µM in the assay with BT-549 breast; over 100 µM in the assay on CAKI-1 renal; over 100 µM in the assay with DU-145 prostate. The TGI with EKVX NSCLC was over 100 µM; in the assay on HCT-15 colon it was 31.2 µM; in the assay on HS 578T breast it was 69.4 µM; with HT29 colon it was over 100 µM; with MDA-MB-231 breast, 26.6 µM; in the assay on NCI-H522 lung, 85.9 µM. The TGI in the assay on PC-3 prostate was over 100 µM; with SK-MEL-28 melanoma, over 100 µM; in the assay with SK-OV-3 ovarian, 19.9 µM; in the assay with SR leukemia it was over 100 µM; with U251 CNS, 54.8 µM; in the assay on UACC-257 melanoma, over 100 µM.

`Cc1c(-c2ccccc2)cc(O)c2nc3ccccc3n12`: the TGI with A498 renal, in the assay with A549 NSCLC, in the assay on ACHN renal, with BT-549 breast, in the assay on CAKI-1 renal and in the assay on DU-145 prostate was over 100 µM throughout. Moreover, the TGI in the assay on EKVX NSCLC, with HCT-15 colon, in the assay with HS 578T breast, in the assay with HT29 colon, with MDA-MB-231 breast and in the assay with NCI-H522 lung was over 100 µM each time. Further, the TGI in the assay on OVCAR-5 ovarian, in the assay with PC-3 prostate, in the assay with SF-295 CNS, with SK-MEL-28 melanoma, in the assay on SR leukemia and in the assay on U251 CNS was over 100 µM throughout. For the same compound, the TGI in the assay on UACC-257 melanoma is over 100 µM.

`C/C(=N\NS(=O)(=O)c1ccc(C)cc1)c1ccccn1`: the concentration for total growth inhibition (TGI) with A498 renal is over 100 µM; in the assay on A549 NSCLC it was over 100 µM; in the assay on ACHN renal it was 83.3 µM; in the assay with BT-549 breast, over 100 µM; with CAKI-1 renal it was over 100 µM; with DU-145 prostate, over 100 µM. Besides, the TGI in the assay with EKVX NSCLC, with HCT-15 colon, in the assay with HS 578T breast, in the assay on HT29 colon, with MDA-MB-231 breast and in the assay on OVCAR-5 ovarian was over 100 µM throughout. For the same compound, the TGI in the assay with PC-3 prostate, in the assay with SF-295 CNS, in the assay on SK-MEL-28 melanoma, with SK-OV-3 ovarian, in the assay on SR leukemia and with U251 CNS was over 100 µM in each case. This compound also displayed a TGI in the assay on UACC-257 melanoma of over 100 µM.

For the compound `CC1C2CC(C(S(=O)(=O)O)C2=O)C1(C)C` (stereo not drawn), the TGI in the assay with A498 renal, in the assay with ACHN renal, in the assay on BT-549 breast, in the assay with DU-145 prostate, in the assay with EKVX NSCLC and in the assay with HS 578T breast was over 100 µM throughout. The TGI in the assay with HT29 colon, in the assay on MDA-MB-231 breast, in the assay on NCI-H522 lung, in the assay on OVCAR-5 ovarian, with PC-3 prostate and in the assay on SF-295 CNS was over 100 µM in each case. Besides, the TGI with SK-MEL-28 melanoma, in the assay with SK-OV-3 ovarian, with SR leukemia, in the assay on U251 CNS and in the assay on UACC-257 melanoma was over 100 µM throughout.

Take `C=C(CCOC)CCC1CCCCC(CN(C)C)C1=O` (stereo not drawn): the TGI with A498 renal, in the assay on A549 NSCLC, with ACHN renal, in the assay with BT-549 breast, in the assay on CAKI-1 renal and in the assay on DU-145 prostate was over 100 µM each time. In addition, the TGI in the assay on EKVX NSCLC, with HCT-15 colon, with HS 578T breast, in the assay with HT29 colon, with MDA-MB-231 breast and in the assay on NCI-H522 lung was over 100 µM each time. Also, the TGI in the assay on OVCAR-5 ovarian, in the assay with PC-3 prostate, in the assay with SF-295 CNS, in the assay with SK-MEL-28 melanoma, with SK-OV-3 ovarian and in the assay with SR leukemia was over 100 µM each time. The TGI in the assay on U251 CNS is over 100 µM.

The values are drawn from PubChem BioAssay (NCI).
